According to US8215314B2, “Photochemical tissue bonding” (The General Hospital Corporation, priority 2000, dated 2012):

Test system: esophageal keratinocytes
Assay: NADH-diaphorase viability of esophageal keratinocytes after PTB
Assay type: cell-based
Protocol: The viability of the photoactivated cells was also assessed. Nicotinamide adenine dinucleotide (NADH-diaphorase) staining was carried out based on the methods described by Heisterkamp J et al. (1999) Lasers Sug Med 25(3): 257-62 and Neumann R A et al. (1991) J Am Acad Dermatol 25: 991-8. Following irradiation, the keratinocyte layer was gently peeled away from the collagen gel and was exposed overnight to an incubation solution consisting of nicotinamide adenine dinucleotide (NADH) and nitroblue tetrazolium chloride (NBT) (Sigma). The viability of the cells was indicated by the formation of a water-insoluble blue precipitate (diformazan), which corresponded to areas with NADH-diaphorase activity. The insoluble blue precipitate was dissolved in DMSO (an organic solvent) and quantified by measuring the optical density (OD) at 550 nm against a commercially available standard. The negative control, RB control, and the laser control composites were also tested using identical conditions. It was determined for the negative control, RB control, laser control, 50 J/cm^2 composite sample, and the 100 J/cm^2 composite sample that the levels of corresponding blue precipitate were 143, 151, 158, 173 and 158 diformazan/nM after photochemical tissue bonding treatment (FIG. 16).

O=C([O-])c1c(Cl)c(Cl)c(Cl)c(Cl)c1-c1c2cc(I)c(=O)c(I)c-2oc2c(I)c([O-])c(I)cc12.[Na+].[Na+] [Rose Bengal]
level of blue precipitate (NADH-diaphorase viability) (0.1% RB, 50 J/cm^2): 173 diformazan/nM
level of blue precipitate (NADH-diaphorase viability) (0.1% RB, 100 J/cm^2): 158 diformazan/nM
level of blue precipitate (NADH-diaphorase viability) (RB control: RB treated, nonirradiated): 151 diformazan/nM
